Measured values as given in US11254652B2, “Crystalline forms of N-(4-(4-(cyclopropymethyl)piperazine-1-carbonyl)phenyl)quinoline-8-sulfonamide” (Agios Pharmaceuticals, Inc., priority 2017, dated 2022).

Experiments:
Format in all cases: physicochemical
[1] = Dynamic Vapor Sorption (DVS)
Protocol: Dynamic Vapor Sorption (DVS) was done using a DVS Intrinsic 1. The sample is loaded into a sample pan and suspended from a microbalance. A typical sample mass for DVS measurement is 25 mg. Nitrogen gas bubbled through distilled water provides the desired relative humidity. A typical measurement comprises the steps: • 1. Equilibrate at 50% RH • 2. 50% to 2%. (50%, 40%, 30%, 20%, 10% and 2%) • a. Hold minimum of 5 mins and maximum of 60 minutes at each humidity. The pass criteria is less than 0.002% change • 3. 2% to 95% (2%, 10%, 20%, 30%, 40%, 50%, 60%, 70%, 80%, 90%, 95%) • b. Hold minimum of 5 mins and maximum of 60 minutes at each humidity. The pass criteria is less than 0.002% change • 4. 95% to 2% (95%, 80%, 70%, 60%, 50%, 40%, 30%, 20%, 10%, 2%) • c. Hold minimum of 5 mins and maximum of 60 minutes at each humidity. The pass criteria is less than 0.002% change • 5. 2% to 50% (2%, 10%, 20%, 30%, 40%, 50%) • d. Hold minimum of 5 mins and maximum of 60 minutes at each humidity. The pass criteria is less than 0.002% change
(§1) The water content by Karl Fisher was about 5.3%. […] A DVS isotherm taken at 40° C. was essentially the same as the one at 25° C. […] Humidity test was conducted on Form A with exposure to 11%, 48%, and 75% relative humidity at 40° C. for 2 weeks followed by XRPD analysis. […] Crystallographic data for Form A is as follows:
Form B tends to hold substantial amount of solvent.
(§2) Form D was determined to be anhydrous with a melting peak at 239° C. See e.g., FIG. 9. DVS of Pattern D was performed and solid picked up about 2% moisture from 2% to 95% relative humidity.

[2] = Humidity / desiccant exposure test followed by XRPD analysis; details: for XRPD after exposure to phosphorus pentoxide (P2O5) granules: one week
Protocol: FIG. 5 (i) depicts X-ray powder diffraction pattern (XRPD) overlay for crystalline hemisulfate salt Form A and after exposure to 11%, 48%, and 75% relative humidity and 40° C. for two weeks. […] FIG. 5 (ii) depicts XRPD overlay for crystalline hemisulfate salt Form A and after exposure to phosphorus pentoxide (P2O5) granules at room temperature and 50° C. for one week, as well as ambient temperature in a vial for 24 hrs.
as §1, §2

[3] = Solubility in water and simulated fluids at 37° C. (slurry, HPLC; XRPD of residual solid); details: values based on hemi-sulfate sesqui-hydrate salt; for solubility at 1 h / solubility at 2 days: 37 °C, thermodynamic from solid; for solubility at 1 h: slurry time 1 hr
Protocol: Solubility of Patterns A, B and D were measured in water. The solids were slurried in the fluids for two days and at 37° C. The supernatant was syringe filtered and used for HPLC analysis. For Patterns A and D the solubility measurement was repeated and the sample was taken after 1 hr slurry. A calibration curve was developed using Pattern A. This was not assay corrected and therefore the solubility values are based on the hemi-sulfate, sesqui-hydrate salt.
Both Patterns B and D converted to Pattern A after two days slurry. Pattern D also converted to Pattern A within 1 hour slurry in Fasted state simulated gastric fluid (FaSSGF) or water. […] This could be because of the conversion of Patterns B and D to Pattern A. The solubility data and the resulting XRPD Pattern after the measurement are reported in Table 21.

What does the source list for `O=C(c1ccc(NS(=O)(=O)c2cccc3cccnc23)cc1)N1CCN(CC2CC2)CC1` [Form A, 1-(cyclopropylmethyl)-4-(4-(quinoline-8-sulfonamido)benzoyl)piperazin-1-ium hemisulfate sesquihydrate]?
moisture picked up in DVS ([1]; 25° C., from 2% to 95% relative humidity): about 1.3%; XRPD after DVS ([1]; Form A: DVS at 25° C. and 40° C., hemisulfate sesquihydrate): remained unchanged; XRPD after humidity test ([2]; 11%, 48%, and 75% relative humidity at 40° C. for 2 weeks): remained unchanged; XRPD after exposure to phosphorus pentoxide (P2O5) granules ([2]; 50° C.): slightly shifted; XRPD peaks after P2O5 at 50° C. then exposure to ambient ([2]; ambient for 24 hrs, changes reversible): shifted back to original positions; XRPD after exposure to phosphorus pentoxide (P2O5) granules ([2]; room temperature): no change; solubility at 1 h ([3]; FaSSGF, fassgf or other biorelevant): 7070 µg/mL; solubility at 2 days ([3]; FaSSGF, fassgf or other biorelevant, slurry time 2 days): 6800 µg/mL; Solubility ([3]; FaSSIF, slurry time 2 days, hemisulfate sesquihydrate): 0.24 mg Solid/mL solvent; solubility at 1 h ([3]; water): 3050 µg/mL; solubility at 2 days ([3]; water, slurry time 2 days): 2690 µg/mL
